{"source": "patent US9193720B2", "about": "“Pyridin-3-yl acetic acid derivatives as inhibitors of human immunodeficiency virus replication” (priority 2014, dated 2015)"}
{"system": "NL-RLuc virus", "experiment": "Inhibition of HIV Replication (NL-RLuc luciferase reporter virus in MT-2 cells)", "format": "cell-based", "details": "Human immunodeficiency virus 1, MT2, 120 h", "source_text": "Inhibition of HIV Replication:\nA recombinant NL-RLuc proviral clone was constructed in which a section of the nef gene from NL4-3 was replaced with the Renilla Luciferase gene. This virus is fully infectious and can undergo multiple cycles of replication in cell culture. In addition, the luciferous reporter provides a simple and easy method for quantitating the extent of virus growth and consequently, the antiviral activity of test compounds. The plasmid pNLRLuc contains the proviral NL-Rluc DNA cloned into pUC18 at the PvuII site. The NL-RLuc virus was prepared by transfection of 293T cells with the plasmid pNLRLuc. Transfections were performed using the LipofectAMINE PLUS kit from Invitrogen (Carlsbad, Calif.) according to the manufacturer and the virus generated was titered in MT-2 cells. For susceptibility analyses, the titrated virus was used to infect MT-2 cells in the presence of compound, and after 5 days of incubation, cells were processed and quantitated for virus growth by the amount of expressed luciferase. Assay media was RPMI 1640 supplemented with 10% heat inactivated fetal bovine serum (FBS), 100 units/ml penicillin G/100 units/ml streptomycin, 10 mM HEPES buffer pH 7.55 and 2 mM L-glutamine. The results from at least 2 experiments were used to calculate the EC50 values. Luciferase was quantitated using the Dual Luciferase kit from Promega (Madison, Wis.). Susceptibility of viruses to compounds was determined by incubation in the presence of serial dilutions of the compound. The 50% effective concentration (EC50) was calculated by using the exponential form of the median effect equation where (Fa)=1/[1+(ED50/drug conc.)^m] (Johnson V A, Byington R T. Infectivity Assay. In Techniques in HIV Research. ed. Aldovini A, Walker B D. 71-76. New York: Stockton Press. 1990).", "units": {"EC50": "nM"}}
{"smiles": "Cc1nc(C)c([C@H](OC(C)(C)C)C(=O)O)c(N2CCC(C)(C)CC2)c1-c1ccc(OC(C)Cc2ccc(F)cc2)cc1", "note": "(stereo partly drawn) [Example 22, (2S)-2-(tert-Butoxy)-2-(4-(4,4-dimethylpiperidin-1-yl)-5-(4-((1-(4-fluorophenyl)propan-2-yl)oxy)phenyl)-2,6-dimethylpyridin-3-yl)acetic acid]", "EC50": 7}
{"smiles": "Cc1nc(C)c([C@H](OC(C)(C)C)C(=O)O)c(N2CCC(C)(C)CC2)c1-c1ccc(OCCc2ccc(F)cc2F)cc1", "note": "[Example 23, (S)-2-(tert-butoxy)-2-(5-(4-(2,4-difluorophenethoxy)phenyl)-4-(4,4-dimethylpiperidin-1-yl)-2,6-dimethylpyridin-3-yl)acetic acid]", "EC50": 5}
{"smiles": "Cc1nc(C)c([C@H](OC(C)(C)C)C(=O)O)c(N2CCC(C)(C)CC2)c1-c1ccc(OCCc2ccc(F)c(F)c2)cc1", "note": "[Example 24, (S)-2-(tert-butoxy)-2-(5-(4-(3,4-difluorophenethoxy)phenyl)-4-(4,4-dimethylpiperidin-1-yl)-2,6-dimethylpyridin-3-yl)acetic acid]", "EC50": 3}
{"smiles": "Cc1nc(C)c([C@H](OC(C)(C)C)C(=O)O)c(N2CCC(C)(C)CC2)c1-c1ccc(OCCc2cc(F)ccc2F)cc1", "note": "[Example 25, (S)-2-(tert-butoxy)-2-(5-(4-(2,5-difluorophenethoxy)phenyl)-4-(4,4-dimethylpiperidin-1-yl)-2,6-dimethylpyridin-3-yl)acetic acid]", "EC50": 3}
{"smiles": "Cc1nc(C)c([C@H](OC(C)(C)C)C(=O)O)c(N2CCC(C)(C)CC2)c1-c1ccc(OCCc2ccc(Cl)cc2)cc1", "note": "[Example 26, (S)-2-(tert-butoxy)-2-(5-(4-(4-chlorophenethoxy)phenyl)-4-(4,4-dimethylpiperidin-1-yl)-2,6-dimethylpyridin-3-yl)acetic acid]", "EC50": 17}
{"smiles": "Cc1nc(C)c([C@H](OC(C)(C)C)C(=O)O)c(N2CCC(C)(C)CC2)c1-c1ccc(OCCc2ccc(Cl)c(F)c2)cc1", "note": "[Example 27, (S)-2-(tert-butoxy)-2-(5-(4-(4-chloro-3-fluorophenethoxy)phenyl)-4-(4,4-dimethylpiperidin-1-yl)-2,6-dimethylpyridin-3-yl)acetic acid]", "EC50": 12}
{"smiles": "Cc1ccc(CCOc2ccc(-c3c(C)nc(C)c([C@H](OC(C)(C)C)C(=O)O)c3N3CCC(C)(C)CC3)cc2)cc1", "note": "[Example 28, (S)-2-(tert-butoxy)-2-(4-(4,4-dimethylpiperidin-1-yl)-2,6-dimethyl-5-(4-(4-methylphenethoxy)phenyl)pyridin-3-yl)acetic acid]", "EC50": 19}
{"smiles": "Cc1nc(C)c([C@H](OC(C)(C)C)C(=O)O)c(N2CCC(C)(C)CC2)c1-c1ccc(OCC(C)(C)c2ccc(Cl)cc2)cc1", "note": "[Example 29, (S)-2-(tert-butoxy)-2-(5-(4-(2-(4-chlorophenyl)-2-methylpropoxy)phenyl)-4-(4,4-dimethylpiperidin-1-yl)-2,6-dimethylpyridin-3-yl)acetic acid]", "EC50": 15}
{"smiles": "Cc1nc(C)c([C@H](OC(C)(C)C)C(=O)O)c(N2CCC(C)(C)CC2)c1-c1ccc(OCCc2ccc3ccccc3c2)cc1", "note": "[Example 30, (S)-2-(tert-butoxy)-2-(4-(4,4-dimethylpiperidin-1-yl)-2,6-dimethyl-5-(4-(2-(naphthalen-2-yl)ethoxy)phenyl)pyridin-3-yl)acetic acid]", "EC50": 6}
{"smiles": "Cc1nc(C)c([C@H](OC(C)(C)C)C(=O)O)c(N2CCC(C)(C)CC2)c1-c1ccc(OCCc2ccc(OCc3ccccc3)cc2)cc1", "note": "[Example 31, (S)-2-(5-(4-(4-(benzyloxy)phenethoxy)phenyl)-4-(4,4-dimethylpiperidin-1-yl)-2,6-dimethylpyridin-3-yl)-2-(tert-butoxy)acetic acid]", "EC50": 47}
{"smiles": "Cc1nc(C)c([C@H](OC(C)(C)C)C(=O)O)c(N2CCC(C)(C)CC2)c1-c1ccc(OCC(C)c2ccc(F)cc2)cc1", "note": "(stereo partly drawn) [Example 32, (2S)-2-(tert-butoxy)-2-(4-(4,4-dimethylpiperidin-1-yl)-5-(4-(2-(4-fluorophenyl)propoxy)phenyl)-2,6-dimethylpyridin-3-yl)acetic acid]", "EC50": 11}
{"smiles": "Cc1nc(C)c([C@H](OC(C)(C)C)C(=O)O)c(N2CCC(C)(C)CC2)c1-c1ccc(OCCc2ccccn2)cc1", "note": "[Example 33, (S)-2-(tert-butoxy)-2-(4-(4,4-dimethylpiperidin-1-yl)-2,6-dimethyl-5-(4-(2-(pyridin-2-yl)ethoxy)phenyl)pyridin-3-yl)acetic acid]", "EC50": 1}
{"smiles": "CO[C@H](COc1ccc(-c2c(C)nc(C)c([C@H](OC(C)(C)C)C(=O)O)c2N2CCC(C)(C)CC2)cc1)c1ccccc1", "note": "[Example 34, (S)-2-(tert-butoxy)-2-(4-(4,4-dimethylpiperidin-1-yl)-5-(4-((S)-2-methoxy-2-phenylethoxy)phenyl)-2,6-dimethylpyridin-3-yl)acetic acid]", "EC50": 11}
{"smiles": "CO[C@@H](COc1ccc(-c2c(C)nc(C)c([C@H](OC(C)(C)C)C(=O)O)c2N2CCC(C)(C)CC2)cc1)c1ccccc1", "note": "[Example 35, (S)-2-(tert-butoxy)-2-(4-(4,4-dimethylpiperidin-1-yl)-5-(4-((R)-2-methoxy-2-phenylethoxy)phenyl)-2,6-dimethylpyridin-3-yl)acetic acid]", "EC50": 13}
{"smiles": "COc1cccc(CCOc2ccc(-c3c(C)nc(C)c([C@H](OC(C)(C)C)C(=O)O)c3N3CCC(C)(C)CC3)cc2)c1", "note": "[Example 36, (S)-2-(tert-butoxy)-2-(4-(4,4-dimethylpiperidin-1-yl)-5-(4-(3-methoxyphenethoxy)phenyl)-2,6-dimethylpyridin-3-yl)acetic acid]", "EC50": 2}
{"smiles": "Cc1nc(C)c([C@H](OC(C)(C)C)C(=O)O)c(N2CCC(C)(C)CC2)c1-c1ccc(OCCc2ccncc2)cc1", "note": "[Example 37, (S)-2-(tert-butoxy)-2-(4-(4,4-dimethylpiperidin-1-yl)-2,6-dimethyl-5-(4-(2-(pyridin-4-yl)ethoxy)phenyl)pyridin-3-yl)acetic acid]", "EC50": 1}
{"smiles": "Cc1nc(C)c([C@H](OC(C)(C)C)C(=O)O)c(N2CCC(C)(C)CC2)c1-c1ccc(OCCc2cccc3ccccc23)cc1", "note": "[Example 38, (S)-2-(tert-butoxy)-2-(4-(4,4-dimethylpiperidin-1-yl)-2,6-dimethyl-5-(4-(2-(naphthalen-1-yl)ethoxy)phenyl)pyridin-3-yl)acetic acid]", "EC50": 6}
{"smiles": "Cc1nc(C)c([C@H](OC(C)(C)C)C(=O)O)c(N2CCC(C)(C)CC2)c1-c1ccc(OCCc2ccccc2)cc1", "note": "[Example 39, (S)-2-(tert-butoxy)-2-(4-(4,4-dimethylpiperidin-1-yl)-2,6-dimethyl-5-(4-phenethoxyphenyl)pyridin-3-yl)acetic acid]", "EC50": 2}
{"smiles": "Cc1ncsc1CCOc1ccc(-c2c(C)nc(C)c([C@H](OC(C)(C)C)C(=O)O)c2N2CCC(C)(C)CC2)cc1", "note": "[Example 40, (S)-2-(tert-butoxy)-2-(4-(4,4-dimethylpiperidin-1-yl)-2,6-dimethyl-5-(4-(2-(4-methylthiazol-5-yl)ethoxy)phenyl)pyridin-3-yl)acetic acid]", "EC50": 1}
{"smiles": "Cc1nc(C)c([C@H](OC(C)(C)C)C(=O)O)c(N2CCC(C)(C)CC2)c1-c1ccc(OCCc2cccnc2)cc1", "note": "[Example 41, (S)-2-(tert-butoxy)-2-(4-(4,4-dimethylpiperidin-1-yl)-2,6-dimethyl-5-(4-(2-(pyridin-3-yl)ethoxy)phenyl)pyridin-3-yl)acetic acid]", "EC50": 1}
{"smiles": "Cc1nc(CCOc2ccc(-c3c(C)nc(C)c([C@H](OC(C)(C)C)C(=O)O)c3N3CCC(C)(C)CC3)cc2)cs1", "note": "[Example 42, (S)-2-(tert-butoxy)-2-(4-(4,4-dimethylpiperidin-1-yl)-2,6-dimethyl-5-(4-(2-(2-methylthiazol-4-yl)ethoxy)phenyl)pyridin-3-yl)acetic acid]", "EC50": 4}
{"smiles": "Cc1nc(C)c([C@H](OC(C)(C)C)C(=O)O)c(N2CCC(C)(C)CC2)c1-c1ccc(OCc2cncs2)cc1", "note": "[Example 43, (S)-2-(tert-butoxy)-2-(4-(4,4-dimethylpiperidin-1-yl)-2,6-dimethyl-5-(4-(thiazol-5-ylmethoxy)phenyl)pyridin-3-yl)acetic acid]", "EC50": 14}
{"smiles": "Cc1nc(C)c(COc2ccc(-c3c(C)nc(C)c([C@H](OC(C)(C)C)C(=O)O)c3N3CCC(C)(C)CC3)cc2)s1", "note": "[Example 44, (S)-2-(tert-butoxy)-2-(4-(4,4-dimethylpiperidin-1-yl)-5-(4-((2,4-dimethylthiazol-5-yl)methoxy)phenyl)-2,6-dimethylpyridin-3-yl)acetic acid]", "EC50": 12}
{"smiles": "Cc1nc(-c2ccccc2)sc1COc1ccc(-c2c(C)nc(C)c([C@H](OC(C)(C)C)C(=O)O)c2N2CCC(C)(C)CC2)cc1", "note": "[Example 45, (S)-2-(tert-butoxy)-2-(4-(4,4-dimethylpiperidin-1-yl)-2,6-dimethyl-5-(4-((4-methyl-2-phenylthiazol-5-yl)methoxy)phenyl)pyridin-3-yl)acetic acid]", "EC50": 29}
{"smiles": "COc1cccc(CCOc2ccc(-c3c(C)nc(C)c([C@H](OC(C)(C)C)C(=O)O)c3N3CCC(C)(C)CC3)cc2OCCc2cccc(OC)c2)c1", "note": "[Example 46, (S)-2-(5-(3,4-bis(3-methoxyphenethoxy)phenyl)-4-(4,4-dimethylpiperidin-1-yl)-2,6-dimethylpyridin-3-yl)-2-(tert-butoxy)acetic acid]", "EC50": 14}
